Experimental data published in patent publication US20030186814A1, “Enhanced herbicide composition” (Valent BioSciences Corporation, priority 2002, published 2003).
Counter-ions that a name gives are not always drawn.

How the values were obtained:
NK S2676 Soybean = assay: Phytotoxicity rating after foliar spray, Roundup Ready soybean; details: Table 5, glyphosate-tolerant crop, n = 4 plants
Procedure: (§1) In all experiments, deionized ultra-pure water was used in preparing solutions. Spray solutions were used as soon as possible after mixing.
(§2) COC was added to all spray solutions at a rate of 0.10% (v/v). For all treatments containing both an herbicide and a salicylate, these materials were mixed and applied in a single spray solution (commonly known as a tank mix). After spraying, plants were moved to the greenhouse and arranged in a randomized complete block experimental design. Plants were evaluated for phytotoxicity/herbicidal effects after spraying by assessing damage according to the following scale:
(§3) 5=100% leaf area affected (dead)
(§4) All the data were subject to an analysis of variance, and the mean separations were determined with Duncan's multiple range test at α=0.05.
Roundup Ready crops are tolerant to glyphosate. This tolerance is conferred by genetic modification of the crop species by the insertion of a glyphosate-insensitive EPSP synthase.

Giant Foxtail = assay: Phytotoxicity rating after foliar spray, Giant Foxtail; assay type: in vivo, Setaria faberi (giant foxtail); details: Table 3; glyphosate 0.2% (v/v), alone or with 5 mM NaSA; COC 0.1%; mean rating 1-5; n = 5 plants
Procedure: as §1, §2, §3, §4

Lambsquarters = assay: Phytotoxicity rating after foliar spray, Lambsquarters; assay type: in vivo, Chenopodium album (lambsquarter); details: Table 4, alone or with 5 mM NaSA, COC 0.1%, mean rating 1-5, n = 6 plants
Procedure: as §1, §2, §3, §4

tobacco = assay: Phytotoxicity rating after foliar spray, tobacco; assay type: in vivo, Nicotiana tabacum (tobacco); details: alone or with 5 mM NaSA, COC 0.1%, mean rating 1-5, n = 5 plants
Procedure: as §1, §2, §3, §4

[1] = glyphosate 0.1% (v/v) + COC 0.1%, mean rating 1-5
[2] = Table 2, glyphosate or Roundup 0.2% (v/v glyphosate)

O=C([O-])c1ccccc1O.[Na+] [NaSA, sodium salicylate]
Phytotoxicity at 4d (NK S2676 Soybean; NaSA 5 mM + COC 0.1%, mean rating 1 = no damage to 5 = dead): 1.5 B

O=C(O)CNCP(=O)(O)O [Glyphosate, N-(phosphonomethyl)glycine, monoisopropylamine salt]
Phytotoxicity at 8d (Giant Foxtail): 3.8 A
Phytoxicity at 6d (Giant Foxtail): 2.0 B
Phytoxicity at 11d (Giant Foxtail): 4.9 B
Phytotoxicity at 3d (Lambsquarters; glyphosate 0.004%): 1.0 A
Phytotoxicity at 7d (Lambsquarters; glyphosate 0.004%): 1.3 AB
Phytotoxicity at 11d (Lambsquarters; glyphosate 0.004%): 1.3 AB
Phytotoxicity at 3d (Lambsquarters; glyphosate 0.02%): 1.0 A
Phytotoxicity at 7d (Lambsquarters; glyphosate 0.02%): 1.5 ABC
Phytotoxicity at 11d (Lambsquarters; glyphosate 0.02%): 2.1 BC
Phytotoxicity at 3d (Lambsquarters; glyphosate 0.04%): 1.0 A
Phytotoxicity at 7d (Lambsquarters; glyphosate 0.04%): 1.6 BC
Phytotoxicity at 11d (Lambsquarters; glyphosate 0.04%): 2.4 C
Phytotoxicity at 3d (Lambsquarters; glyphosate 0.2% (v/v)): 1.4 BC
Phytotoxicity at 7d (Lambsquarters; glyphosate 0.2% (v/v)): 2.4 D
Phytotoxicity at 11d (Lambsquarters; glyphosate 0.2% (v/v)): 4.0 D
Phytotoxicity at 1d (NK S2676 Soybean; [1]): 1.6 BC
Phytotoxicity at 4d (NK S2676 Soybean; [1]): 1.8 BC
Phytotoxicity at 6d (NK S2676 Soybean; [1]): 1.9 C
Phytotoxicity at 11d (NK S2676 Soybean; [1]): 1.9 D
Phytotoxicity at 4d (tobacco; Table 1, glyphosate 0.04%): 1.2 A
Phytotoxicity at 6d (tobacco; Table 1, glyphosate 0.04%): 1.7 BC
Phytotoxicity at 8d (tobacco; Table 1, glyphosate 0.04%): 2 B
Phytotoxicity at 11d (tobacco; Table 1, glyphosate 0.04%): 3.1 B
Phytotoxicity at 14d (tobacco; Table 1, glyphosate 0.04%): 3.6 B
Phytotoxicity at 4d (tobacco; Table 1, glyphosate 0.2% (v/v)): 1.5 B
Phytotoxicity at 6d (tobacco; Table 1, glyphosate 0.2% (v/v)): 2.2 CD
Phytotoxicity at 8d (tobacco; Table 1, glyphosate 0.2% (v/v)): 3.1 D
Phytotoxicity at 11d (tobacco; Table 1, glyphosate 0.2% (v/v)): 4.1 D
Phytotoxicity at 14d (tobacco; Table 1, glyphosate 0.2% (v/v)): 4.9 C
Phytotoxicity at 5f (tobacco; [2]): 1.5 BC
Phytotoxicity at 2d (tobacco; [2]): 1.3 B
Phytotoxicity at 8d (tobacco; [2]): 3.3 C
Phytotoxicity at 13d (tobacco; [2]): 4.9 B
